Assay results from ChEMBL document CHEMBL1129578, “Tetrahydronaphthalenes: influence of heterocyclic substituents on inhibition of steroid enzymes P450 arom and P450 17” (J Med Chem, 1996).

Legend:
[1] = target: T1, Steroid 17-alpha-hydroxylase/17,20 lyase (Rattus norvegicus, UniProt P11715)
T1 sequence (P11715 whole entry): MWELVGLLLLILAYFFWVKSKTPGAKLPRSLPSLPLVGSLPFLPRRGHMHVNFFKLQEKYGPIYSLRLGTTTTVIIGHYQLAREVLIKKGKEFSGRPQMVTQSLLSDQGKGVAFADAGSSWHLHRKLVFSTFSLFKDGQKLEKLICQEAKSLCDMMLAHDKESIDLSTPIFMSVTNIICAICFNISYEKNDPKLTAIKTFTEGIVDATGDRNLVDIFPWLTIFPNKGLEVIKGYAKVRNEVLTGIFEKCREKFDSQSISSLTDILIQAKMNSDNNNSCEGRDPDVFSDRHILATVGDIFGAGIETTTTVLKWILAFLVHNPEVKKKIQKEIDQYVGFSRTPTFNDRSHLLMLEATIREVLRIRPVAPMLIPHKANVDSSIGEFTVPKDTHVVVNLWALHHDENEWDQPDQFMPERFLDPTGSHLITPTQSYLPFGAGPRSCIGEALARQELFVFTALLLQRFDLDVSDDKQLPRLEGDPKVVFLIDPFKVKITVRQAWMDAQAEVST
Description: In vitro inhibitory activity against Steroidgenic Cytochrome P450 17 alpha using rat testicular microsomes.

[2] = target: T2, Cytochrome P450 11B2, mitochondrial (Homo sapiens, UniProt P19099); conditions: Adrenal gland
T2 sequence (P19099 whole entry): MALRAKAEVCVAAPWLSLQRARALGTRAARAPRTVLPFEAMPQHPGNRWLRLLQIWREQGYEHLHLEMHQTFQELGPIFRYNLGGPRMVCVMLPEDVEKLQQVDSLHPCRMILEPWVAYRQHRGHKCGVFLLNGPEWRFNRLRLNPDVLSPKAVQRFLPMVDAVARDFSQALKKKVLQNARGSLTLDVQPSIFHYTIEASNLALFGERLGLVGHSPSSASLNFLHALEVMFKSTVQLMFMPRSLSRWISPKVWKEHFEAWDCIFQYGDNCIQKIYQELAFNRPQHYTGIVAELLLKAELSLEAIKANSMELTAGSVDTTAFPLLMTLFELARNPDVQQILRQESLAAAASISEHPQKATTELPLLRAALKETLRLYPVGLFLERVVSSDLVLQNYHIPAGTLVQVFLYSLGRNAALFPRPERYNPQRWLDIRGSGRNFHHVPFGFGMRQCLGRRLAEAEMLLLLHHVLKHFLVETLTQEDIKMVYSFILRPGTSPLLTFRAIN
Description: Inhibitory activity against Steroidgenic Cytochrome P450 C18 using Bovine adrenal mitochondria

## c1ccc(C2C3CCc4ccccc4C32)cc1 (centres undefined)
[1]
  IC50: < 10 µM

## c1ccc2c(c1)CCC1C(c3ccsc3)C21 (centres undefined)
[1]
  IC50: < 10 µM
[2]
  IC50: < 10 µM

## O=C1/C(=C/c2cc[nH]n2)CCc2ccccc21
[1]
  IC50: < 10 µM

## c1ccc(C2C3CCc4ccccc4C32)nc1 (centres undefined)
[1]
  IC50: < 10 µM

## c1cncc(C2C3CCc4ccccc4C32)c1 (centres undefined)
[1]
  IC50: 87 µM

## O=C1/C(=C/c2ccccn2)CCc2ccccc21
[1]
  IC50: < 10 µM

## c1ccc2c(c1)CCC1C(c3ccncc3)C21 (centres undefined)
[1]
  IC50: 36 µM

## O=C1/C(=C/c2cncs2)CCc2ccccc21
[1]
  IC50: 21 µM

## O=C1/C(=C/c2ccsc2)CCc2ccccc21
[1]
  IC50: < 10 µM

## O=C1c2ccccc2CCC1C(O)c1cnccn1 (centres undefined)
[1]
  IC50: < 10 µM

## O=C1c2ccccc2CCC1C(O)c1ccnnc1 (centres undefined)
[1]
  IC50: < 10 µM

## O=C1/C(=C/c2cccnc2)CCc2ccccc21
[1]
  IC50: 48 µM

## O=C1/C(=C/c2ccccc2)CCc2ccccc21
[1]
  IC50: < 10 µM

## O=C1c2ccccc2CCC1C(O)c1cccnn1 (centres undefined)
[1]
  IC50: < 10 µM

## O=C1c2ccccc2CCC1C(O)c1ccncn1 (centres undefined)
[1]
  IC50: < 10 µM

## O=C1/C(=C/c2ccncc2)CCc2ccccc21
[1]
  IC50: 37 µM

## O=C1/C(=C/c2cccnn2)CCc2ccccc21
[1]
  IC50: < 10 µM

## O=C1/C(=C/c2ccnnc2)CCc2ccccc21
[1]
  IC50: < 10 µM
